Test results as given in publication PMC12627862, “Therapeutic targeting of endothelial calcium signaling accelerates the resolution of lung injury” (Signal Transduction and Targeted Therapy, 2025).
Starred links: 1 amine or outer side, 2 acyl side, 3 side chain; linkers in the order of their positions; H or OH if unused. Non-standard residues stand in square brackets, D forms with d. Residues, ends and D or L forms follow the SMILES beside them. ξ: configuration not given here. Oic = O=C(O)[C@@H]1C[C@@H]2CCCC[C@@H]2N1; GABOB(3R) = O=C(C[C@@H](O)CN[*:1])[*:2]; tBuAla = CC(C)(C)C[C@H](N)C(=O)O; ξVal(3-OH) = CC(C)(O)C(N)C(=O)O; 4Amb = NCc1ccc(C(=O)O)cc1

Experiments:
[1] = molecular target: full-length EB3 (Homo sapiens, UniProt Q9UPY8); experiment: STD-NMR binding to EB3 (amplification factor); settings: versus the linear precursor
Sequence of full-length EB3 (Q9UPY8 whole entry, species assumed): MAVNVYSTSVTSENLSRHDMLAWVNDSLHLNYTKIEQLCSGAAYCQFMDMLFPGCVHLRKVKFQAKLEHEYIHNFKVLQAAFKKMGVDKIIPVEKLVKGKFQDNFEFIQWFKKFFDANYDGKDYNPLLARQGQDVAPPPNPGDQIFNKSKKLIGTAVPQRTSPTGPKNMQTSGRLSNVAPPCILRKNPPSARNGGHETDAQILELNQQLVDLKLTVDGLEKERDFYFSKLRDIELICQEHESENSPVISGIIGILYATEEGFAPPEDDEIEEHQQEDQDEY
Excerpt: To screen these drug-like compounds for binding to full-length EB3, we employed the saturation transfer difference (STD)-NMR approach as a cell-free throughput screening platform. We were unable to use other methods, such as isothermal titration calorimetry, because of the nature of the EB3 dimer, which dynamically exchanges chains within the dimer—a process influenced by the binding of the C-terminus to its partners, such as the tested peptides. To analyze the STD-NMR data quantitatively, we established the amplification factor (AMPSTD), a change in signal intensity upon saturation that is normalized to ligand abundance (Fig. 1a), as a measure of the binding affinity of the compounds to the target protein EB3. […]
Fig. 1 NMR-based characterization of EB3 inhibitors. a The saturation transfer difference (STD) NMR approach was used to profile peptide binding to EB3. […] The amplification ratio was calculated as follows: AMPSTD = ISTD/INO SAT x {L}, where ISTD is the highest STD signal intensity measured with saturation; INO SAT is the intensity measured for the same signal without saturation; and {L} is the peptide concentration. c ^1H-^15N HSQC spectrum of ^15N-enriched EB3_200-281 alone (black) and in the presence of a 1:1 molar ratio of 109 (cyan). […]

[2] = tested on: splenocytes from CD1 mice; experiment: Cytokine release by immune cells in vitro; assay type: cell-based, mouse; settings: 2 µg/mL LPS for 2 hours, VT-109 200 nM and 1 µM
Procedure: VT-109’s effect on cytokine release by immune cells in vitro. Freshly isolated splenocytes from CD1 mice were treated with 2 µg/mL LPS for 2 hours. Two different concentrations of VT-109 (200 nM and 1 µM) were tested, and the cells were treated concurrently with LPS. Untreated splenocytes served as the control. After the 2-hour incubation, MCP-1, TNF-α, KC, and IL-6 levels were measured in the growth media using mouse multiplexed ELISA array. Data are expressed as pg/mL.

[3] = tested on: SARS-CoV-2 (WA1/2020); assay type: in vivo, mouse
[4] = Non-GLP dose-escalation (MTD) study in rats; assay type: in vivo, rat; settings: rat, in vivo; male Crl:CD (SD) rats, single IV bolus; read-out: no observed adverse effect level (NOAEL)
[5] = Pharmacokinetic studies in rats
Procedure: Blood samples were collected at predefined time points (2, 10, 30, 60, 90 minutes, and 2, 4, 6, 8, and 24 hours post-dosing) from subgroups of rats, ensuring each animal contributed a limited number of samples to minimize stress. Plasma was separated by centrifugation and stored at -80 °C until analysis. Lungs were collected at selected time points (0.5, 2, 8, and 24 hours) for drug quantification. […] Pharmacokinetic parameters, including Cmax, Tmax, AUC, half-life, clearance, and volume of distribution, were calculated using Phoenix WinNonlin software.

[6] = male, Crl:CD (SD), rat, in vivo, iv, 5 mg/kg
[7] = rat lungs, single IV 5 mg/kg, Phoenix WinNonlin
[8] = rat plasma, single IV 5 mg/kg, Phoenix WinNonlin

For `CC(C)(C)C[C@@H]1NC(=O)C[C@@H](O)CNC(=O)[C@@H]2C[C@@H]3CCCC[C@@H]3N2C(=O)[C@H](CC(C)(C)C)NC(=O)c2ccc(cc2)CNC(=O)C(C(C)(C)O)NC(=O)[C@@H](Cc2ccccc2)NC1=O` (stereo partly drawn) [compound 109, (1^2S,1^3aS,1^7aS,3S,10S,13R,16S,20R)-13-benzyl-20-hydroxy-10-(2-hydroxypropan-2-yl)-3,16-dineopentyl-1^2,1^3,1^3a,1^4,1^5,1^6,1^7,1^7a-octahydro-1^1H-4,8,11,14,17,22-hexaaza-1(1,2)-indola-6(1,4)-benzenacyclotricosaphane-2,5,9,12,15,18,23-heptaone.] (cyclo([4Amb][tBuAla][Oic][GABOB(3R)][tBuAla][dF][ξVal(3-OH)])), the “improvement of EB3 binding by head-to-tail cyclization” value [1] was “approximately 4 fold”, the “cytokine production by immune cells in vitro (MCP-1, TNFα, KC, IL-6)” value [2] was “nor did it directly alter cytokine production” and the “lung injury (ALI score)” value ([3]; 250 nmol/kg bw from 1 dpi) was “promoted the resolution of lung injury by day 7”. The “NFATC2 nuclear accumulation in endothelial and immune cells” value ([3]; 250 nmol/kg bw, 7 dpi) was “reduced NFATC2 nuclear accumulation”, the VE-cadherin junctions ([3]; 250 nmol/kg bw, 7 dpi) was “reannealed junctions” and the “number of infiltrating monocytes and neutrophils in the BALF” value ([3]; 2 µmol/kg bw i.v.) was “significantly reduced”. The “blood-brain barrier (BBB) integrity, cerebral cortex” value ([3]; 2 µmol/kg bw i.v., 5 dpi) was “restored BBB integrity”, the NOAEL at 72 h [4] was 5 mg/kg and the AUC(0-t) [5, 6] was 12400 ng·h/mL. The C0 [5, 6] was 46300 ng/mL, the Tmax [5, 6] was 1.98 min and the Vd [5, 6] was 3.1 L/kg. For the same compound, the clearance [5, 6] was 6.72 mL/min/kg, the half-life [5, 6] was 5.33 h and the “AUC (0-last)” value [5, 7] was 27219 ng·h/g. For the same compound, the Cmax [5, 7] was 3606 ng/g, the Lambda_z [5, 7] was 0.1535 h⁻¹ and the half-life [5, 7] was 4.52 h. The “persistence of substantial amounts in the lung post dose” value ([5]; rat lungs, single intravenous injection) was “at least 24 hours”, the Cmax [5, 8] was 40548 ng/mL and the Lambda_z [5, 8] was 0.1299 h⁻¹. The “time of peak plasma concentrations (Cmax) after dosing” value ([5]; rat plasma, single intravenous injection) was ≤ 2 min.
